Source: patent publication US9861117B2 (priority 2009, dated 2018)
Read-outs that look alike come from different tables or passages of the source.

Legend:
Clostridium perfringens [1] = type: in vivo; details: 0-42 day, infected broilers, 1000 ppm in feed
[2] = Diarrhoea score of weaned piglets fed supplemented feed; details: 1000 ppm in feed; for Diarrhoea score: average over the total period
Clostridium perfringens [3] = type: in vivo, broilers; parameters: Clostridium perfringens counts in jejunum: unit not given here; details: 1000 ppm in feed; for Clostridium perfringens counts in jejunum: day 13 of age
Clostridium perfringens [4] = type: cell-based
[5] = Recovery in duodenum, jejunum and ileum of broilers fed supplemented feed; type: in vivo; details: 1000 ppm in feed, day 43 of age, FIG. 3
Description: Broilers were offered feed supplemented with 1000 ppm of either dodecanoic acid or ethyl dodecanoate throughout the trial. At day 43 of age, 12 birds per treatment were sacrificed and the content of the duodenum, jejunum and ileum was harvested and analysed for levels of ethyl dodecanoate and dodecanoic acid. In FIG. 3 the mean levels are depicted.

[6] = Challenged broilers (10^8 CFU C. perfringens day 9-11)
[7] = Overall (challenged and non-challenged)
[8] = Example 1, FIG. 1, all tested levels, broth, 8 hours

Row | SMILES | Feed conversion ratio (Clostridium perfringens [1]) | Feed intake (Clostridium perfringens [1]) | Mortality (Clostridium perfringens [1]) | Weight gain (Clostridium perfringens [1]) | Diarrhoea score [2] | Clostridium perfringens counts in jejunum (Clostridium perfringens [3]; [6]) | Clostridium perfringens counts in jejunum (Clostridium perfringens [3]; Non-challenged broilers) | Clostridium perfringens counts in jejunum (Clostridium perfringens [3]; [7]) | Inhibition of growth of Clostridium perfringens (OD) (Clostridium perfringens [4]; Example 2, FIG. 2, at 67 ppm) | Level recovered in the jejunum [5] | Effect on diarrhoea (in words) ([2]; versus control) | Effect on Clostridium counts in jejunum (in words) (Clostridium perfringens [3]; broilers, versus dodecanoic acid) | Inhibition of growth of Clostridium perfringens (OD) (Clostridium perfringens [4]; [8]) | Inhibition of growth of Clostridium perfringens (OD) (Clostridium perfringens [4]; Example 2, FIG. 2, lowest inclusion level of treatment)
1 | CCCCCCCCCCCC(=O)O [dodecanoic acid, reference compound] | 1.636 | 104.3 g/day | 8.333% | 63.78 g/day | 46.64 ab | 2.122 | 1.418 | 1.770 | not as effective |  |  |  |  | 
2 | CCCCCCCCCCCC(=O)OCC [ethyl dodecanoate] | 1.626 | 106.5 g/day | 4.621% | 65.5 g/day | 42.41 b | 0.977 | 1.048 | 1.013 |  | higher than the free fatty acid | significantly reduce diarrhoea | overall significant reduction | complete inhibition | complete inhibition
3 | CCCCCCCC(=O)OC [methyl octanoate] |  |  |  |  |  |  |  |  |  |  |  |  | nearly the same results | 
